This assay addresses SARS-CoV-2 M^pro (Severe acute respiratory syndrome coronavirus 2, UniProt P0DTD1). The assay is described as follows: In vitro FRET enzymatic assay (screening at 1 µM and SAR IC50). The class given is biochemical. The conditions noted are these: for inhibition at 1 µM: read-out: M^pro inhibition % (comp. conc. 1 µM).

Take `N#Cc1cc(C(=O)N[C@H](CC2CCC2)C(=O)N[C@H](CC(=O)N[C@H](Cc2ccncc2)C(=O)O)Cc2c[nH]c3ccccc23)ccn1` [MP1]: the inhibition at 1 µM turned out to be 97%.

Consider `N#Cc1cc(C(=O)N[C@H](CC2CCC2)C(=O)N[C@H](CC(=O)O)Cc2c[nH]c3ccccc23)ccn1` [MP2], for which the “M^pro inhibition % (comp. conc. 1 µM)” value turned out to be 2.2% and the inhibition at 1 µM was around 2%.

In the case of `N#Cc1cc(C(=O)N[C@H](CC2CCC2)C(=O)N[C@H](CC(=O)N[C@H](Cc2ccccc2)C(=O)O)Cc2c[nH]c3ccccc23)ccn1` [MP3], the “M^pro inhibition % (comp. conc. 1 µM)” value was determined as 30.4% and the inhibition at 1 µM is around 30%.

For `N#Cc1cc(C(=O)N[C@H](CC2CCC2)C(=O)N[C@H](CC(=O)N[C@H](Cc2ccc(Cl)cc2)C(=O)O)Cc2c[nH]c3ccccc23)ccn1` [MP4], the inhibition at 1 µM was around 30%.

As to `N#Cc1cc(C(=O)N[C@H](CC2CCC2)C(=O)NCCC(=O)N[C@H](Cc2ccncc2)C(=O)O)ccn1` [MP5], the “M^pro inhibition % (comp. conc. 1 µM)” value is given as 8.1% and the inhibition at 1 µM was around 8%.

For `N#Cc1cccc(C(=O)N[C@H](CC2CCC2)C(=O)N[C@H](CC(=O)N[C@H](Cc2ccncc2)C(=O)O)Cc2c[nH]c3ccccc23)c1` [MP6], the “M^pro inhibition % (comp. conc. 1 µM)” value amounted to 17.8% and the inhibition at 1 µM is around 18%.

As to `O=Cc1cccc(C(=O)N[C@H](CC2CCC2)C(=O)N[C@H](CC(=O)N[C@H](Cc2ccncc2)C(=O)O)Cc2c[nH]c3ccccc23)c1` [MP7], the inhibition at 1 µM was found to be 100%.

In the case of `CC(=O)c1cccc(C(=O)N[C@H](CC2CCC2)C(=O)N[C@H](CC(=O)N[C@H](Cc2ccncc2)C(=O)O)Cc2c[nH]c3ccccc23)c1` [MP8], the “M^pro inhibition % (comp. conc. 1 µM)” value was determined as 18.2% and the inhibition at 1 µM was around 18%.

Regarding `CCCC[C@@H](NC(=O)c1ccnc(C#N)c1)C(=O)N[C@H](CC(=O)N[C@H](Cc1ccncc1)C(=O)O)Cc1c[nH]c2ccccc12` [MP9], the inhibition at 1 µM came to 86.6%.

With `N#Cc1cc(C(=O)N[C@H](Cc2ccc(Cl)cc2)C(=O)N[C@H](CC(=O)N[C@H](Cc2ccncc2)C(=O)O)Cc2c[nH]c3ccccc23)ccn1` [MP10], the inhibition at 1 µM came out at 95.7%. Besides, the IC50 (IC50 ± SEM) turned out to be 71 ± 7 nM.

Take `N#Cc1cc(C(=O)N[C@H](Cc2ccc(Cl)c(Cl)c2)C(=O)N[C@H](CC(=O)N[C@H](Cc2ccncc2)C(=O)O)Cc2c[nH]c3ccccc23)ccn1` [MP11]: the inhibition at 1 µM was found to be 90.7%. This molecule yielded an IC50 (IC50 ± SEM) of 69 ± 4 nM.

In the case of `N#Cc1cc(C(=O)N[C@H](CC2CCC2)C(=O)N[C@H](CC(=O)N[C@H](Cc2ccncc2)C(=O)NCc2ccccc2)Cc2c[nH]c3ccccc23)ccn1` [MP12], the inhibition at 1 µM stood at 96.5%.

On to `N#Cc1cc(C(=O)N[C@H](CC2CCC2)C(=O)N[C@H](CC(=O)N[C@H](Cc2ccncc2)C(=O)NCCN2CCOCC2)Cc2c[nH]c3ccccc23)ccn1` [MP13], for which the inhibition at 1 µM is 94.2%. In addition, for the setting “IC50 ± SEM”, the midpoint of inhibition, the IC50, lay at 47 ± 6 nM.

In the case of `N#Cc1cc(C(=O)N[C@H](CC2CCC2)C(=O)N[C@H](CC(=O)N[C@H](Cc2ccncc2)C(=O)NCc2ccccn2)Cc2c[nH]c3ccccc23)ccn1` [MP14], the inhibition at 1 µM was determined as 98.2%. For the same molecule, the midpoint of inhibition (IC50 ± SEM), the IC50, lay at 45 ± 9 nM.

Take `N#Cc1cc(C(=O)N[C@H](CC2CCC2)C(=O)N[C@H](CC(=O)N[C@H](Cc2ccncc2)C(=O)NCc2cccc(Cl)c2)Cc2c[nH]c3ccccc23)ccn1` [MP15]: the inhibition at 1 µM worked out at 66.8%.

Consider `N#Cc1cc(C(=O)N[C@H](CC2CCC2)C(=O)N[C@H](CC(=O)N[C@H](Cc2ccncc2)C(=O)NCCc2c[nH]c3ccccc23)Cc2c[nH]c3ccccc23)ccn1` [MP16], for which the inhibition at 1 µM was 94.7%. The molecule also returned an IC50 (IC50 M^pro) of 47 nM. The molecule further gave an IC50 (IC50 ± SEM) of 33 ± 3 nM.

As a reminder, the inhibition is the percentage by which the read-out fell short of the control. For orientation: IC50 means the concentration that inhibits the measured activity by half. A higher IC50 goes with weaker potency in that assay.

The values above are taken from PMC11459923, “Identification of novel and potent inhibitors of SARS-CoV-2 main protease from DNA-encoded chemical libraries” (Antimicrobial Agents and Chemotherapy, 2024).
